The values that follow come from PubChem BioAssay (NCI).

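Five concentrations, 48 hours, 96-well plates. At the GI50, growth is halved. TGI marks complete inhibition of growth.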

Some test systems named below: COLO 205 colon; K-562 leukemia; MDA-MB-435; OVCAR-5 ovarian; SW-620 colon; TK-10 renal; U251 CNS; UO-31 renal.
Experiment in all cases: growth of human tumour cells (NCI), 48 h

`CC(=O)OCc1ccc2oc(=O)c(C(=O)Oc3ccccc3)cc2c1`: the TGI with COLO 205 colon is over 100 µM; with K-562 leukemia it was 30 µM; with MDA-MB-435, over 100 µM; in the assay with OVCAR-5 ovarian, over 100 µM; with SW-620 colon it was over 100 µM; with TK-10 renal, 62.8 µM. Further, the TGI in the assay with U251 CNS and in the assay on UO-31 renal was over 100 µM each time.

For the compound `COC(=O)c1ccccc1C1CN=NC12Cc1cc(C)ccc1C2=O` (centres undefined), the TGI in the assay on COLO 205 colon, in the assay on K-562 leukemia, with MDA-MB-435, with OVCAR-5 ovarian, with SW-620 colon and in the assay with TK-10 renal was over 100 µM throughout. Moreover, the TGI in the assay with U251 CNS and in the assay on UO-31 renal was over 100 µM throughout.

With `O=C1C(c2c(O)[nH]c3ccc(Br)cc23)=Nc2ccccc21`, the TGI with COLO 205 colon is 31.4 µM; in the assay with K-562 leukemia it was over 100 µM; with MDA-MB-435, 40.1 µM; with OVCAR-5 ovarian, 26 µM; in the assay on SW-620 colon, over 100 µM; in the assay with TK-10 renal it was 27.8 µM. Also, the TGI stood at 26.2 µM with U251 CNS and 12.3 µM in the assay with UO-31 renal.

As to `O=C1C(Cl)=C(Nc2ccc(S(=O)(=O)Nc3ccccn3)cc2)C(=O)c2ccccc21`, the TGI is 27.8 µM in the assay on COLO 205 colon; 16.5 µM with K-562 leukemia; 14 µM in the assay with MDA-MB-435; over 46.9 µM in the assay on OVCAR-5 ovarian; over 73.5 µM with SW-620 colon; 22.7 µM in the assay with TK-10 renal. Also, the TGI was determined as 19.3 µM with U251 CNS and 29 µM with UO-31 renal.

As to `O=[N+]([O-])c1cc(-c2nc(-c3ccccc3)c(-c3ccccc3)[nH]2)c(O)c([N+](=O)[O-])c1`, the TGI in the assay with COLO 205 colon is 45.1 µM; in the assay on K-562 leukemia it was over 100 µM; in the assay with MDA-MB-435, 95.3 µM; with OVCAR-5 ovarian it was 50.3 µM; in the assay on SW-620 colon it was 90.8 µM; in the assay on TK-10 renal, 65.8 µM. The TGI with U251 CNS is 29.5 µM; in the assay with UO-31 renal, 33.4 µM.

On to `CCCCCCCCCCNC(=O)CCC(NC(=O)c1ccc(N(C)Cc2cnc3nc(N)nc(N)c3n2)cc1)C(=O)NCCCCCCCCCC` (centres undefined), for which the TGI was 15.2 µM in the assay on COLO 205 colon; over 32.2 µM in the assay with K-562 leukemia; 15.4 µM in the assay with MDA-MB-435; 66.1 µM with OVCAR-5 ovarian; 13.5 µM in the assay on SW-620 colon; over 92.7 µM with TK-10 renal. The TGI is 14.1 µM with U251 CNS and over 100 µM in the assay on UO-31 renal.

In the case of `CCOC(=O)c1ccc(N=c2sc3ccccc3nc2Nc2ccc(C(=O)OCC)cc2)cc1`, the TGI in the assay with COLO 205 colon, in the assay on K-562 leukemia, in the assay on MDA-MB-435, in the assay with OVCAR-5 ovarian, with SW-620 colon and in the assay on TK-10 renal was over 100 µM each time. Further, the TGI in the assay with U251 CNS and in the assay on UO-31 renal was over 100 µM throughout.

`CCCCCCCCCCCCC(O)[C@H]1CC[C@H](C(O)CCCCCC(=O)CCCCC2CC(C(C)=O)C(=O)O2)O1` (some centres undefined): the GI50 is 2160 nM with COLO 205 colon; 1910 nM in the assay on K-562 leukemia; 1920 nM in the assay on MDA-MB-435; 4.08 µM with SW-620 colon; 3.99 µM in the assay on U251 CNS. The TGI was over 57.8 µM with COLO 205 colon; over 63.6 µM with K-562 leukemia; 35.6 µM in the assay with MDA-MB-435; 50 µM with OVCAR-5 ovarian; over 100 µM with SW-620 colon; over 68.6 µM in the assay on TK-10 renal. In addition, the TGI is over 62.5 µM in the assay with U251 CNS and 26.9 µM in the assay with UO-31 renal.

Regarding `Nc1onc2c1Cc1c(noc1N)-c1ccccc1-2`, the TGI with COLO 205 colon, in the assay on K-562 leukemia, in the assay on MDA-MB-435, with OVCAR-5 ovarian, with SW-620 colon and with TK-10 renal was over 100 µM each time. Moreover, the TGI in the assay with U251 CNS and in the assay on UO-31 renal was over 100 µM in each case.

On to `CCOC(=O)c1c(N2CCOCC2)[nH]c(=O)c(C(c2ccco2)c2c(O)c(C(=O)OCC)c(N3CCOCC3)[nH]c2=O)c1O`, for which the TGI with COLO 205 colon, with K-562 leukemia, with MDA-MB-435, in the assay with OVCAR-5 ovarian, with SW-620 colon and in the assay on TK-10 renal was over 100 µM each time. In addition, the TGI in the assay on U251 CNS and with UO-31 renal was over 100 µM throughout.

For `CCOC(=O)NC(Nc1ccc(C(=O)OCC)cc1)(C(F)(F)F)C(F)(F)F`, the TGI in the assay with COLO 205 colon, with K-562 leukemia, in the assay on MDA-MB-435, with OVCAR-5 ovarian, in the assay on SW-620 colon and in the assay on TK-10 renal was over 100 µM throughout. For the same compound, the TGI in the assay with U251 CNS and in the assay on UO-31 renal was over 100 µM each time.

Regarding `N[C@H]1CCCC[C@@H]1N1C(=O)c2ccccc2C1(O)c1ccc(Cl)cc1` (some centres undefined), the TGI amounted to 12.6 µM in the assay with COLO 205 colon; 13.2 µM in the assay with K-562 leukemia; 21.1 µM with MDA-MB-435; 28.6 µM in the assay on OVCAR-5 ovarian; 24.2 µM in the assay on SW-620 colon; 26 µM with TK-10 renal. The TGI with U251 CNS was determined as 26.6 µM; with UO-31 renal, 24.2 µM.

As to `Cn1c(-c2cccc([N+](=O)[O-])c2)[n+](C)c2ccccc21`, the TGI in the assay with COLO 205 colon, in the assay with K-562 leukemia, with MDA-MB-435, with OVCAR-5 ovarian, in the assay on SW-620 colon and in the assay with TK-10 renal was over 100 µM each time. The TGI in the assay with U251 CNS and with UO-31 renal was over 100 µM in each case.

`NC(=S)N/N=C\c1nccc2ccccc12`: the TGI with COLO 205 colon is 2.89 µM; with K-562 leukemia, over 50 µM; in the assay on MDA-MB-435 it was over 100 µM; in the assay on OVCAR-5 ovarian, over 100 µM; with SW-620 colon it was over 100 µM; in the assay on TK-10 renal, 39.8 µM. The figures for the TGI in the assay on U251 CNS and in the assay on UO-31 renal were over 58.6 µM and 3.63 µM, respectively. Besides, in the assay with OVCAR-5 ovarian, the GI50 is 469 nM.

As to `Cc1ccc(S(=O)(=O)NNCNC(=O)c2ccccc2)cc1`, the TGI in the assay on COLO 205 colon, with K-562 leukemia, with MDA-MB-435, in the assay with OVCAR-5 ovarian, in the assay on SW-620 colon and in the assay on TK-10 renal was over 100 µM throughout. For the same compound, the TGI with U251 CNS and in the assay with UO-31 renal was over 100 µM in each case.

Consider `NC(N)=Nc1ccc(CC(N)C(=O)O)cc1` (centres undefined), for which the TGI in the assay on COLO 205 colon, in the assay with K-562 leukemia, with MDA-MB-435, in the assay with OVCAR-5 ovarian, in the assay with SW-620 colon and with TK-10 renal was over 12.5 µM throughout. Moreover, the TGI with U251 CNS and with UO-31 renal was over 12.5 µM throughout.
